From US20220401436A1, “METHODS FOR THE TREATMENT OF CANCERS THAT HAVE ACQUIRED RESISTANCE TO KINASE INHIBITORS” (INSERM (INSTITUTE NATIONAL DE LA SANTÉ ET DE LA RECHERCHE …, priority 2019, published 2022)

What was measured:
HCC4006 = assay: GFP-transduced HCC4006 cells treated in vitro, response and relapse followed by fluorescence detection; type: cell-based; settings: for emergence of resistant proliferative clones: inhibitor at 1 μM
PC9 = assay: GFP-transduced PC9 cells treated in vitro, response and relapse followed by fluorescence detection; type: cell-based; settings: for emergence of resistant proliferative clones: inhibitor at 1 μM
TKI-sensitive models = assay: Relapse in several TKI-sensitive models followed by fluorescence detection (FIG. 1); type: cell-based; settings: in combination with TKI; FIG. 1 title
Description: (§1) FIG. 1. […] (G-H). GFP-transduced H3122 (ALK-translocated NSCLC cell line) or A375 (BRAF-mutated melanoma cell line) were treated by Tipifarnib 0.1 μM in combination with Alectinib (2 μM) or Vemurafenib (5 μM), respectively, and response as well as relapse was followed by fluorescence detection.

HCC827 = assay: GFP-transduced HCC827 cells treated in vitro, response and relapse followed by fluorescence detection; type: cell-based; settings: for emergence of resistant proliferative clones: inhibitor at 1 μM
[1] = test system: A375 (BRAF-mutated melanoma cell line); assay: GFP-transduced A375 cells treated in vitro, response and relapse followed by fluorescence detection; type: cell-based
Description: as §1

[2] = test system: H3122 (ALK-translocated NSCLC cell line); assay: GFP-transduced H3122 cells treated in vitro, response and relapse followed by fluorescence detection; type: cell-based
Description: as §1

[3] = test system: EGFR-mutated lung cell lines; assay: Drug-tolerant cell (DTC) state in a panel of EGFR-mutated lung cell lines; type: cell-based
From the text: Actin polymerization is a tightly regulated process orchestrated by GTPases. Given our knowledge on the role of RHOB in resistance to targeted therapy, we assessed whether this GTPase could be responsible for the production of stress fibers in response to EGFR-TKI.

[4] = combination of Erlotinib and Tipifarnib; phase I clinical trial; cited from earlier work
HCC2935 = type: cell-based
H3255 = type: cell-based
[5] = combination with erlotinib 1 μM
[6] = Tipifarnib alone at 0.1 μM, data not shown
[7] = Tipifarnib alone at 1 μM vs 0.1 μM, data not shown
[8] = combination with erlotinib 1 μM, Tipifarnib at 0.1 μM
[9] = combination with erlotinib 1 μM, Tipifarnib at 1 μM
[10] = erlotinib alone, data not shown

COC(=O)[C@H](CC(C)C)NC(=O)c1ccc(NC[C@@H](N)CS)cc1-c1cccc2ccccc12 [GGTI 298]
emergence of resistant proliferative clones (HCC4006; [5]): didn't prevent the emergence of resistant proliferative clones
emergence of resistant proliferative clones (PC9; [5]): didn't prevent the emergence of resistant proliferative clones
relapse (TKI-sensitive models): not GGTi prevent relapse
emergence of resistant proliferative clones (HCC827; [5]): didn't prevent the emergence of resistant proliferative clones

Cn1cncc1[C@@](N)(c1ccc(Cl)cc1)c1ccc2c(c1)c(-c1cccc(Cl)c1)cc(=O)n2C [Tipifarnib, (R)-6-[amino(4-chlorophenyl)(1-methyl-1H-imidazol-5-yl)methyl]-4-(3-chlorophenyl)-1-methyl-2(1H)-quinolinone]
effect on cells growth (HCC4006; [6]): some cytostatic effect
cytostatic effect (HCC4006; [7]): exacerbated
elimination of drug tolerant cells (HCC4006; [8]): efficiently eliminated all drug tolerant cells
emergence of resistant clones (HCC4006; [8]): fully prevented the emergence of resistant clones
elimination of drug tolerant cells (HCC4006; [9]): efficiently eliminated all drug tolerant cells
emergence of resistant proliferative clones (HCC4006; [5]): fully prevented the emergence of resistant clones
effect on cells growth ([1]; Tipifarnib alone at 0.1 μM): some cytostatic effect
cytostatic effect [1, 7]: exacerbated
effect on cells growth ([2]; Tipifarnib alone at 0.1 μM): some cytostatic effect
cytostatic effect [2, 7]: exacerbated
effect on cells growth (PC9; [6]): little-to-non effect
elimination of drug tolerant cells (PC9; [8]): efficiently eliminated all drug tolerant cells
emergence of resistant clones (PC9; [8]): fully prevented the emergence of resistant clones
elimination of drug tolerant cells (PC9; [9]): efficiently eliminated all drug tolerant cells
emergence of resistant proliferative clones (PC9; [5]): fully prevented the emergence of resistant clones
cell death / remaining DTC after several days of treatment ([3]; combination of Tipifarnib and Erlotinib (1 μM), cell lines not named, data not shown): complete cell death
relapse (TKI-sensitive models): prevent relapse
effect on cells growth (HCC827; [6]): little-to-non effect
elimination of drug tolerant cells (HCC827; [8]): efficiently eliminated all drug tolerant cells
emergence of resistant clones (HCC827; [8]): fully prevented the emergence of resistant clones
elimination of drug tolerant cells (HCC827; [9]): efficiently eliminated all drug tolerant cells
emergence of resistant proliferative clones (HCC827; [5]): fully prevented the emergence of resistant clones
tolerability in patients [4]: well tolerated

C#Cc1cccc(Nc2ncnc3cc(OCCOC)c(OCCOC)cc23)c1 [erlotinib]
proliferative resistant clones after erlotinib treatment (HCC4006; [10]): able to generate proliferative resistant clones
resistant clones after erlotinib treatment (HCC2935): never observed resistant clones
proliferative resistant clones after erlotinib treatment (PC9; [10]): able to generate proliferative resistant clones
generation of DTC [3]: able to generate DTC
resistant clones after erlotinib treatment (H3255): never observed resistant clones

C=CC(=O)Nc1cc(Nc2nccc(-c3cn(C)c4ccccc34)n2)c(OC)cc1N(C)CCN(C)C [osimertinib]
generation of DTC [3]: able to generate DTC
